Entries after “also recorded” stand apart in the source; their conditions may differ. Positions of bridges follow the written chain, without caps; N, C: chain ends. Non-standard residues stand in square brackets, D forms with d. Residues, ends and D or L forms follow the SMILES beside them. Chains are numbered I, II in the order given. Gly(N-piperonyl) = O=C(O)CNCc1ccc2c(c1)OCO2; N(4-MeOBn)Gly = COc1ccc(CNCC(=O)O)cc1; Nrpe = C[C@@H](NCC(=O)O)c1ccccc1; Nlys = NCCCCNCC(=O)O
What was measured:
HCC4017 cells = test: FACS binding assay; parameters: species or system human
Procedure: FACS binding assays were conducted to further quantify the binding event of the PPS1 monomer and PPS1D1 dimer.

[1] = test system: HCC4017, H460, H358, H441, H1819, H1993, H2122, MD-MB-231 and PC3 cells; test: In vitro cancer cell killing (MTS cell viability assays and FACS studies); type: cell-based, human; conditions: lung, breast and prostate cancer cells
From the text: Various derivatives of PPS1 have been developed that have similar and improved activities. FIGS. 15-22, 36-51.

[2] = Membrane lipid array (lipid dot blot); type: binding
Procedure: (FIGS. 11A and 11B). […] All of the bound lipids PS, PA, PI and PG have an overall negative charge as compared to unbound PC, PE and SM, which are neutral. This extra negative charge is responsible for interacting with positively charged region of PPS1, while the hydrophobic regions of both PPS1 and lipids may interact through van der Waals forces. […] The membrane was first blocked with 3% BSA in TBS-T for 1 hr. After washing with TBS-T, 2.5 μg/ml of biotin labeled PPS1D1 was added. Binding of biotin-PPS1D1 was detected by immunoblotting with streptavidin-HRP antibody. […] The binding affinity of PPS1D1 to PS appears to be strongest among all phospholipids as even at low lipid concentrations, PPS1D1 efficiently binds to it. (FIG. 11D). […] It is well documented that these phospholipids are predominantly present in the inner leaflet in normal cells. […] PC, PE, SM and PS are the most abundant phospholipids. Among these, only PS is an anionic phospholipid. PC and SM are present mostly in the outer leaflet, whereas PE and PS occupy most of inner leaflet with a variety of other anionic phospholipids. However, in stress conditions and in most tumor studied to date, PS and PE flip to the outer leaflet. PPS1D1 has six positively charged residues along with a hydrophobic region. […] However the binding affinity of PPSD1 to these anionic phospholipids is different. […] PPS1D1 could have a structure beyond a simple linear sequence contributing various levels of binding to PS, PA, PI and PG, maintaining highest binding affinity to PS.
Membrane lipid array: Membrane lipid arrays were purchased from Echelon Biosciences. Membranes were blocked in 3% BSA in TBS-T for one hour then incubated with 2.5 μg/ml of biotin-PPS1D1 for two hours. After washing unbound peptoid using TBS-T, bound biotin-PPS1D1 was detected by immunoblotting with Streptavidin-HRP antibody at 1:750 dilution (BioLegend).
One of the major questions arising at this point is how PPS1 or PPS1D1 specifically recognizes PS over PC, as both lipids have negatively charged phosphate head groups. To address this specificity concern, ELISA-like binding assay were expanded to include other membrane phospholipids such as phosphatidylethanolamine (PE), sphingomyelin (SM), phosphatidic acid (PA), phosphatidylinositol (PI) and phosphatidylglycerol (PG). […] This additional negative charge can be responsible for the interaction with the positively charged region of PPS1 or PPS1D1, while the hydrophobic regions of PPS1 or PPS1D1 may interact with hydrophobic tail groups of the lipids through van der Waals forces. […] The membrane was treated with biotin labeled PPS1D1 and binding was detected by immunoblotting with streptavidin-HRP. […] It has been reported that PS can form a bilayer lamellar and reverse hexagonal phase. PS is mainly in a lamellar phase after hydration at physiological pH. By validating our binding through an ELISA-like assay and liposomes, PPS1D1 has an equal opportunity to bind to each phase of PS.
Membrane lipid arrays were purchased from Echelon Biosciences, UT. Membranes were blocked in 3% BSA in TBST for 1 hour and then incubated with 2.5 μg/ml of biotin-PPS1D1 for 2 hours. Membranes were washed with TBST and incubated with Streptavidin-HRP antibody at 1:750 dilutions (BioLegend,CA). After washing, signal was detected with ECL western blotting substrate (Life technologies, CA) using Fluorchem 8900 (Alpha Innotech Imaging system).

[3] = test system: HCC4017, H460, HCC95, H1693, H1395 lung cancer cell lines; test: MTS cell viability assay on series of lung cancer cell lines; type: cell-based, human
From the text: In this current study, the target of PPS1D1 is PS and HCC4017 strongly expresses PS. Our next goal was to evaluate the level of PS externalization on other lung cancer cell lines and the activity profile of PPS1D1 on those cell lines. A variety of lung cancer cell lines HCC4017 (lung adenocarcinoma), H460 (large cell lung cancer), H1395 (lung adenocarcinoma), HCC95 (squamous cell lung carcinoma), H1993 (adenocarcinoma; non-small cell lung cancer), H1695 and HBEC30KT (normal bronchial epithelial cells) were treated with fluorescein-labeled Annexin V (FITC-Annexin V) and the bound fluorescein signal was detected using flow cytometry. […] Standard cell viability (MTS) assay by treating these cell lines with PPS1D1 (1 and 20 μM) and 20 μM of a control compound PC462D1 (FIG. 68) in 96-well plates were performed. […] PPS1D1 had no effect on normal HBEC30KT cells at either concentration.
HCC4017, H460, HCC95, H1693, H1395 and HBEC30KT cells were grown in clear bottom 96 well plates. On second day, lung cancer cells were treated with PPS1, PPS1D1 and control PC462D1 in RPMI medium with 10% FBS containing 3% BSA. HBEC30KT was treated with PPS1, PPS1D1 and control PC462D1 in KSFM media with 3% BSA.

[4] = 2.5 μg/ml biotin labeled PPS1D1
[5] = 2.5 μg/ml biotin labeled PPS1D1, listed as PPSD1

## COc1ccc(CN(CC(=O)N(CCCCN)CC(=O)N[C@@H](CCCCN)C(=O)N[C@H](CCCCN)C(=O)N[C@@H](CCSC)C(=O)NCCCC[C@H](NC(=O)[C@H](CCSC)NC(=O)[C@@H](CCCCN)NC(=O)[C@H](CCCCN)NC(=O)CN(CCCCN)C(=O)CN(Cc2ccc(OC)cc2)C(=O)CN(C(=O)CN(Cc2ccc3c(c2)OCO3)C(=O)CN[C@H](C)c2ccccc2)[C@H](C)c2ccccc2)C(N)=O)C(=O)CN(C(=O)CN(Cc2ccc3c(c2)OCO3)C(=O)CN[C@H](C)c2ccccc2)[C@H](C)c2ccccc2)cc1 [PPS1D1] (I: H-[Nrpe][Gly(N-piperonyl)][Nrpe][N(4-MeOBn)Gly][Nlys]K[dK]MK-NH2 / II: H-[Nrpe][Gly(N-piperonyl)][Nrpe][N(4-MeOBn)Gly][Nlys]K[dK]M; amide I:9-II:C; N-terminus assumed)
HCC4017 cells
  improvement of binding of dimeric version over PPS1: about 175 fold
HCC4017 cells; FACS
  Kd: 80 nM
[1]
  in vitro cancer cell killing activity: strong in vitro cancer cell killing activity
[2]; [4]
  binding to DAG: did not show binding; also recorded: does not bind
  binding to PA: a little weaker binding
  binding to PC: does not bind
  binding to PE: does not bind
  binding to PG: weaker binding
  binding to PI: weaker binding
  binding to PS: strongest binding affinity
  binding to SM: does not bind
[2]; [5]
  binding to PC: clearly not binding
  binding to PE: clearly not binding
  binding to PG: very weak level
  binding to PI: very weak level
  binding to SM: clearly not binding
[3]; 1 μM
  cytotoxicity on lung cancer cell lines: not at 1 μM
[3]; 20 μM
  cytotoxicity on lung cancer cell lines: strong cytotoxicity

From US10849875B2, “Cancer specific lipid targeted peptidomimetics” (University of Houston System, priority 2015, dated 2020)
